Test [1] relates to zebrafish (Danio rerio). Conditions: cited from earlier work; for bottom dwelling by zebrafish, effect: another study, ref Bencan, Sledge, & Levin, 2009.
In test [2] the test system is zebrafish (Danio rerio). In words: Novel aquatic light/dark plus maze test. Conditions: for time frozen in the center of the maze: PETCO San Antonio zebrafish, N = 5-6, controls 81 ± 48 s. Type of test: in vivo.
Test [3] concerns zebrafish (Danio rerio). Conditions: 0.05 h, 125 ug/mL.
Test [4] relates to zebrafish (Danio rerio). The test is described as follows: Novel dive tank test. Conditions: 3 min exposure.
The test system of test [5] is zebrafish. Conditions: ref Lau et al., 2010; cited from earlier work.
The mark [6] stands for this setting: 25 mg/L, PETCO zebrafish, N = 8.
Setting [7] is: 125 mg/L, PETCO zebrafish, N = 4, not significant vs untreated.
Where [8] appears, read: 50 and 100 mg/L, zebrafish from PETCO San Antonio, TX.
Setting [9] is: nicotine 25 mg/L, AB, WIK, PETCO and GloFish lines.
Setting [10] is: 25 mg/L, Aquatic Eco-Systems zebrafish, N = 9.

For `CN1C(=O)CN=C(c2ccccc2)c2cc(Cl)ccc21` [diazepam], the “bottom dwelling by zebrafish, effect” value in test [1] is reported as “reduced bottom dwelling”.

For the compound `CN1CCC[C@H]1c1cccnc1` [nicotine], the “arm entries, effect vs controls” value in test [2] (setting [6]) is on record as “Neither nicotine nor desipramine exposure had any effect on arm entries”. Further, in test [2] (50 mg/L), the “time frozen in the center of the maze” value is on record as 9 ± 5 s. For the same compound, the “time frozen in the center of the maze” value in test [2] (100 mg/L) came out at 198 ± 46 s. In test [2] (setting [7]), the “% of white entries” value was found to be 25 ± 3%, the arm entries came out at 30 ± 9 entries, the “time frozen in the middle” value came to 57 ± 17 s and the “total time spent in white arms” value is 56 ± 24 s. Also, in test [2] (setting [8]), the “time spent in white arms, effect” value was “no effect” and the “white arm entries, effect” value was “no effect”. In test [2] (setting [9]), the “% white arm entries of total entries, effect” value is “no effect”; the “initial time frozen in centre (latency to enter an arm), effect” value is listed as “no influence”; the “time spent in white arms, effect” value was “nor was there an effect”; the “total number of arm entries, effect” value is given as “no effect”. Further, the “time at the dive tank top” value in test [3] amounted to 4 ± 4 s. In test [1] (50 and 100 mg/L, previous studies, ref Levin et al., 2007), the “bottom dwelling in novel dive tanks, effect” value was “reduced zebrafish bottom dwelling at earlier time points”. Also, in test [4] (setting [6]), the “time spent in top of dive tank, effect vs untreated” value (shortened to “time spent in top … vs untreated”) is “Neither 25 mg/L nicotine (NIC) nor 0.05% DMSO affected behavior in the dive tank”. Further, the “time spent in top … vs untreated” value in test [4] (nicotine 25 mg/L, AB, WIK, PETCO and GloFish lines, 5 min test) is on record as “no significant anxiolytic effect”.

In the case of `COC(=O)[C@@H]1[C@H]2C[C@H]3c4[nH]c5ccccc5c4CCN3C[C@@H]2CC[C@@H]1O` [yohimbine], the “total arm entries, effect” value in test [2] (setting [10]) was “did not differ in total arm entries”. Further, in test [4] (setting [10]), the “time spent in top 2/3 of dive tank, effect vs controls” value (“time spent … vs controls” below) is “did not differ from untreated control fish”.

Regarding `O=C1CC2(CCCC2)CC(=O)N1CCCCN1CCN(c2ncccn2)CC1` [buspirone], the “bottom dwelling by zebrafish, effect” value in test [1] is listed as “reduced bottom dwelling”.

Take `CNCCCN1c2ccccc2CCc2ccccc21` [desipramine]: in test [2] (25 mg/L, PETCO zebrafish), the “anxiolytic behaviors in the plus maze” value was “neither desipramine nor citalopram produced any anxiolytic behaviors in the plus maze”. The “arm entries, effect vs controls” value in test [2] (setting [6]) was “Neither nicotine nor desipramine exposure had any effect on arm entries”. In addition, the “time spent in top … vs untreated” value in test [4] (setting [6]) is on record as “significantly more time in the top of the dive tank than untreated fish”.

In the case of `CN(C)CCCC1(c2ccc(F)cc2)OCc2cc(C#N)ccc21` (stereo not shown) [citalopram], in test [2] (100 mg/L, Aquatic Eco-Systems zebrafish), the “anxiolytic behaviors in the plus maze” value is “neither desipramine nor citalopram produced any anxiolytic behaviors in the plus maze”. The “total arm entries, effect” value in test [2] (100 mg/L, Aquatic Eco-Systems zebrafish, N = 9) is “did not differ in total arm entries”.

In the case of `C[S+](C)[O-]` [DMSO], in test [2] (0.05% DMSO, PETCO zebrafish, N = 8), the “total arm entries, effect vs controls” value is “significant increase in total arm entries”. Also, in test [2] (0.05% DMSO, PETCO zebrafish, N = 8, p < 0.05), the “time in white arms, effect vs controls” value was “spent significantly more time in white arms than untreated controls”. The “time spent … vs controls” value in test [4] (0.05% DMSO, PETCO zebrafish) is “no significant anxiolytic effect”.

`CNC1=Nc2ccc(Cl)cc2C(c2ccccc2)=[N+]([O-])C1` [chlordiazepoxide]: in test [2] (setting [10]), the “total arm entries, effect” value was “did not differ in total arm entries”. Besides, the “time in the white arms” value in test [2] (25 mg/L, Aquatic Eco-Systems zebrafish, N = 9, controls 60 ± 10 s) is listed as 124 ± 25 s. Further, the “white arm entries, % of total entries” value in test [2] (25 mg/L, Aquatic Eco-Systems zebrafish, N = 9, untreated 22 ± 2%) is reported as 36 ± 5%. The “time spent on the light side of a tank, effect” value in test [5] is recorded as “increased the amount of time zebrafish spent on the light side of a tank”. In test [4] (setting [10]), the “time spent … vs controls” value is on record as “did not differ from untreated control fish”.

Turning to `CCO` [ethanol], the “total arm entries, effect vs controls” value in test [2] (0.5% ethanol, PETCO zebrafish, N = 7) is reported as “significant increase in total arm entries”. For the same compound, the “time in white arms” value in test [2] (0.5% ethanol, PETCO zebrafish, N = 7, untreated controls 41 ± 17 s) turned out to be 126 ± 20 s. Further, in test [4] (0.5% ethanol, PETCO zebrafish, p = 0.08), the “time spent … vs controls” value is reported as “non-significant trend toward zebrafish spending more time in the top 2/3 of the tank”.

Source of the values: article PMC2879659 (International journal of comparative psychology / ISCP ; …, 2010).
